In brackets after ≈: the same amount, converted by molar mass.
Assays:
mice = mice (i.v.)
in vivo = conditions: mouse, iv
[1] = system: Staphylococcus aureus, 209 P; assay: Antibacterial activity in vitro, MIC (Table 1); format: cell-based; conditions: dilution method on plate culture (heart infusion agar), 10^6/ml, 37° C., 18 hours, read-out: Minimum Inhibitory Concentration (MIC)
Procedure: (§1) *Determined by the standard method of the Japan Society of Chemotherapy:
(§2) dilution method on plate culture (heart infusion agar culture), 10^6
(§3) /ml of bacteria were seeded and incubated at 37° C. for 18 hours.

[2] = system: Klebsiella pneumoniae, 501; assay: Antibacterial activity in vitro, MIC (Table 1); format: cell-based; conditions: dilution method on plate culture (heart infusion agar), 10^6/ml, 37° C., 18 hours, read-out: Minimum Inhibitory Concentration (MIC)
Procedure: as §1, §2, §3

Proteus mirabilis, 1287 [3] = assay: Antibacterial activity in vitro, MIC (Table 1); format: cell-based; conditions: dilution method on plate culture (heart infusion agar), 10^6/ml, 37° C., 18 hours, read-out: Minimum Inhibitory Concentration (MIC)
Procedure: as §1, §2, §3

[4] = system: Bacillus subtilis, ATCC 6633; assay: Antibacterial activity in vitro, MIC (Table 1); format: cell-based; conditions: ATCC6633, dilution method on plate culture (heart infusion agar), 10^6/ml, 37° C., 18 hours, read-out: Minimum Inhibitory Concentration (MIC)
Procedure: as §1, §2, §3

[5] = system: Serratia marcescens, 13001; assay: Antibacterial activity in vitro, MIC (Table 1); format: cell-based; conditions: dilution method on plate culture (heart infusion agar), 10^6/ml, 37° C., 18 hours, read-out: Minimum Inhibitory Concentration (MIC)
Procedure: as §1, §2, §3

[6] = system: Pseudomonas aeruginosa, 2063; assay: Antibacterial activity in vitro, MIC (Table 1); format: cell-based; conditions: dilution method on plate culture (heart infusion agar), 10^6/ml, 37° C., 18 hours, read-out: Minimum Inhibitory Concentration (MIC)
Procedure: as §1, §2, §3

Proteus vulgaris, 3167 [7] = assay: Antibacterial activity in vitro, MIC (Table 1); format: cell-based; conditions: read-out: Minimum Inhibitory Concentration (MIC)
Procedure: as §1, §2, §3

[8] = system: Enterobacter cloacae, 12001; assay: Antibacterial activity in vitro, MIC (Table 1); format: cell-based; conditions: read-out: Minimum Inhibitory Concentration (MIC)
Procedure: as §1, §2, §3

[9] = system: Shigella flexneri 2a, 5503; assay: Antibacterial activity in vitro, MIC (Table 1); format: cell-based; conditions: dilution method on plate culture (heart infusion agar), 10^6/ml, 37° C., 18 hours, read-out: Minimum Inhibitory Concentration (MIC)
Procedure: as §1, §2, §3

[10] = system: Streptococcus pyogenes, G-36; assay: Antibacterial activity in vitro, MIC (Table 1); format: cell-based; conditions: G36, dilution method on plate culture (heart infusion agar), 10^6/ml, 37° C., 18 hours, read-out: Minimum Inhibitory Concentration (MIC)
Procedure: as §1, §2, §3

Escherichia coli NIHJ [11] = assay: Antibacterial activity in vitro, MIC (Table 1); format: cell-based; conditions: read-out: Minimum Inhibitory Concentration (MIC)
Procedure: as §1, §2, §3

[12] = system: Staphylococcus aureus, 209 P; assay: Antibacterial activity in vitro, MIC (Table 2); format: cell-based; conditions: MullerHinton Bouillon, 10^6/ml, 37° C., 18 hours, read-out: Minimum Inhibitory Concentration (MIC)
Procedure: (§4) *Determined in MullerHinton Bouillon, 10^6 /ml of bacteria were seede
(§5) and incubated at 37° C. for 18 hours.

[13] = system: Klebsiella pneumoniae, 501; assay: Antibacterial activity in vitro, MIC (Table 2); format: cell-based; conditions: MullerHinton Bouillon, 10^6/ml, 37° C., 18 hours, read-out: Minimum Inhibitory Concentration (MIC)
Procedure: as §4, §5

Proteus mirabilis, 1287 [14] = assay: Antibacterial activity in vitro, MIC (Table 2); format: cell-based; conditions: MullerHinton Bouillon, 10^6/ml, 37° C., 18 hours, read-out: Minimum Inhibitory Concentration (MIC)
Procedure: as §4, §5

[15] = system: Bacillus subtilis, ATCC 6633; assay: Antibacterial activity in vitro, MIC (Table 2); format: cell-based; conditions: ATCC6633, MullerHinton Bouillon, 10^6/ml, 37° C., 18 hours, read-out: Minimum Inhibitory Concentration (MIC)
Procedure: as §4, §5

[16] = system: Serratia marcescens, 13001; assay: Antibacterial activity in vitro, MIC (Table 2); format: cell-based; conditions: MullerHinton Bouillon, 10^6/ml, 37° C., 18 hours, read-out: Minimum Inhibitory Concentration (MIC)
Procedure: as §4, §5

[17] = system: Pseudomonas aeruginosa, 2063; assay: Antibacterial activity in vitro, MIC (Table 2); format: cell-based; conditions: MullerHinton Bouillon, 10^6/ml, 37° C., 18 hours, read-out: Minimum Inhibitory Concentration (MIC)
Procedure: as §4, §5

Proteus vulgaris, 3167 [18] = assay: Antibacterial activity in vitro, MIC (Table 2); format: cell-based; conditions: MullerHinton Bouillon, 10^6/ml, 37° C., 18 hours, read-out: Minimum Inhibitory Concentration (MIC)
Procedure: as §4, §5

[19] = system: Enterobacter cloacae, 12001; assay: Antibacterial activity in vitro, MIC (Table 2); format: cell-based; conditions: MullerHinton Bouillon, 10^6/ml, 37° C., 18 hours, read-out: Minimum Inhibitory Concentration (MIC)
Procedure: as §4, §5

[20] = system: Shigella flexneri 2a, 5503; assay: Antibacterial activity in vitro, MIC (Table 2); format: cell-based; conditions: MullerHinton Bouillon, 10^6/ml, 37° C., 18 hours, read-out: Minimum Inhibitory Concentration (MIC)
Procedure: as §4, §5

[21] = system: Pseudomonas sepacia, II D 5132; assay: Antibacterial activity in vitro, MIC (Table 2); format: cell-based; conditions: IID5132, MullerHinton Bouillon, 10^6/ml, 37° C., 18 hours, read-out: Minimum Inhibitory Concentration (MIC)
Procedure: as §4, §5

[22] = system: Streptococcus pyogenes, G-36; assay: Antibacterial activity in vitro, MIC (Table 2); format: cell-based; conditions: G36, MullerHinton Bouillon, 10^6/ml, 37° C., 18 hours, read-out: Minimum Inhibitory Concentration (MIC)
Procedure: as §4, §5

Escherichia coli NIHJ [23] = assay: Antibacterial activity in vitro, MIC (Table 2); format: cell-based; conditions: MullerHinton Bouillon, 10^6/ml, 37° C., 18 hours, read-out: Minimum Inhibitory Concentration (MIC)
Procedure: as §4, §5

[24] = system: Pseudomonas sepacia, II D 1340; assay: Antibacterial activity in vitro, MIC (Table 1); format: cell-based; conditions: IID1340, dilution method on plate culture (heart infusion agar), 10^6/ml, 37° C., 18 hours, read-out: Minimum Inhibitory Concentration (MIC)
Procedure: as §1, §2, §3

[25] = system: gram-negative and gram-positive bacteria (test organisms); assay: Antibacterial activity (in vitro), comparison in words; format: cell-based; conditions: compounds of this invention versus known compounds / PPA
Procedure: as §1, §2, §3, §4, §5

[26] = Proteus vulgaris, 3167, dilution method on plate culture (heart infusion agar), 10^6/ml, 37° C., 18 hours
[27] = Enterobacter cloacae, 12001, dilution method on plate culture (heart infusion agar), 10^6/ml, 37° C., 18 hours
[28] = Escherichia coli NIHJ, dilution method on plate culture (heart infusion agar), 10^6/ml, 37° C., 18 hours

## CC1CCc2c(N3CCN(C)CC3)c(F)cc3c(=O)c(C(=O)O)cn1c23 (stereo not drawn) [8-(4-methyl-1-piperazinyl)-9-fluoro-5-methyl-6,7-dihydro-1-oxo-1H,5H-benz[ij]quinolizine-2-carboxylic acid, reference compound]
mice
  toxicity (in words): comparatively high toxicity
In vivo
  LD50: 135 mg/kg

## CC1COc2c(N3CCN(C)CC3)c(F)cc3c(=O)c(C(=O)O)cn1c23 (stereo not drawn) [Ia, 9-fluoro-10-(4-methyl-1-piperazinyl)-3-methyl-7-oxo-2,3-dihydro-7H-pyrido[1,2,3-de][1,4]benzoxazine-6-carboxylic acid]
[1]
  MIC: 0.39 µg/mL (≈ 1.08 µM)
[2]
  MIC: 0.2 µg/mL (≈ 0.553 µM)
Proteus mirabilis, 1287 [3]
  MIC: 0.1 µg/mL (≈ 0.277 µM)
[4]
  MIC: 0.2 µg/mL (≈ 0.553 µM)
[5]
  MIC: 0.2 µg/mL (≈ 0.553 µM)
[6]
  MIC: 1.56 µg/mL (≈ 4.32 µM)
Proteus vulgaris, 3167 [7]; [26]
  MIC: 0.05 µg/mL (≈ 0.138 µM)
[8]; [27]
  MIC: 0.1 µg/mL (≈ 0.277 µM)
[9]
  MIC: 0.05 µg/mL (≈ 0.138 µM)
[10]
  MIC: 1.56 µg/mL (≈ 4.32 µM)
Escherichia coli NIHJ [11]; [28]
  MIC: ≤ 0.025 µg/mL
In vivo
  LD50: 380 mg/kg
[12]
  MIC: 0.39 µg/mL (≈ 1.08 µM)
[13]
  MIC: 0.39 µg/mL (≈ 1.08 µM)
Proteus mirabilis, 1287 [14]
  MIC: 0.1 µg/mL (≈ 0.277 µM)
[15]
  MIC: 0.1 µg/mL (≈ 0.277 µM)
[16]
  MIC: 0.1 µg/mL (≈ 0.277 µM)
[17]
  MIC: 0.78 µg/mL (≈ 2.16 µM)
Proteus vulgaris, 3167 [18]
  MIC: ≤ 0.05 µg/mL
[19]
  MIC: 0.1 µg/mL (≈ 0.277 µM)
[20]
  MIC: ≤ 0.05 µg/mL
[21]
  MIC: 12.5 µg/mL (≈ 34.6 µM)
[22]
  MIC: 1.56 µg/mL (≈ 4.32 µM)
Escherichia coli NIHJ [23]
  MIC: ≤ 0.05 µg/mL

## CC1COc2c(N3CCNCC3)c(F)cc3c(=O)c(C(=O)O)cn1c23 (stereo not drawn) [Ib, 9-fluoro-3-methyl-7-oxo-10-(1-piperazinyl)-2,3-dihydro-7H-pyrido[1,2,3-de][1,4]benzoxazine-6-carboxylic acid]
[1]
  MIC: 0.39 µg/mL (≈ 1.12 µM)
[2]
  MIC: 0.39 µg/mL (≈ 1.12 µM)
Proteus mirabilis, 1287 [3]
  MIC: 0.1 µg/mL (≈ 0.288 µM)
[4]
  MIC: 0.39 µg/mL (≈ 1.12 µM)
[5]
  MIC: 0.78 µg/mL (≈ 2.25 µM)
[24]
  MIC: 12.5 µg/mL (≈ 36 µM)
[6]
  MIC: 0.78 µg/mL (≈ 2.25 µM)
Proteus vulgaris, 3167 [7]; [26]
  MIC: 0.05 µg/mL (≈ 0.144 µM)
[8]; [27]
  MIC: 0.2 µg/mL (≈ 0.576 µM)
[9]
  MIC: 0.05 µg/mL (≈ 0.144 µM)
[10]
  MIC: 3.13 µg/mL (≈ 9.01 µM)
Escherichia coli NIHJ [11]; [28]
  MIC: ≤ 0.025 µg/mL

## CC1COc2c(N3CCC(O)C3)c(F)cc3c(=O)c(C(=O)O)cn1c23 (stereo not drawn) [Ic, 9-fluoro-10-(3-hydroxy-1-pyrrolidinyl)-3-methyl-7-oxo-2,3-dihydro-7H-pyrido[1,2,3-de][1,4]benzoxazine-6-carboxylic acid]
[1]
  MIC: 0.1 µg/mL (≈ 0.287 µM)
[2]
  MIC: 0.78 µg/mL (≈ 2.24 µM)
Proteus mirabilis, 1287 [3]
  MIC: 0.1 µg/mL (≈ 0.287 µM)
[4]
  MIC: 0.05 µg/mL (≈ 0.144 µM)
[5]
  MIC: 0.78 µg/mL (≈ 2.24 µM)
[6]
  MIC: 1.56 µg/mL (≈ 4.48 µM)
Proteus vulgaris, 3167 [7]; [26]
  MIC: 0.1 µg/mL (≈ 0.287 µM)
[8]; [27]
  MIC: 0.2 µg/mL (≈ 0.574 µM)
[9]
  MIC: 0.1 µg/mL (≈ 0.287 µM)
[10]
  MIC: 0.78 µg/mL (≈ 2.24 µM)
Escherichia coli NIHJ [11]; [28]
  MIC: 0.05 µg/mL (≈ 0.144 µM)

## CC1COc2c(N3CCN(C)CC3)c(Cl)cc3c(=O)c(C(=O)O)cn1c23 (stereo not drawn) [Id, 9-chloro-3-methyl-10-(4-methyl-1-piperazinyl)-7-oxo-2,3-dihydro-7H-pyrido[1,2,3-de][1,4]benzoxazine-6-carboxylic acid]
[12]
  MIC: 0.2 µg/mL (≈ 0.529 µM)
[13]
  MIC: 0.2 µg/mL (≈ 0.529 µM)
Proteus mirabilis, 1287 [14]
  MIC: 0.1 µg/mL (≈ 0.265 µM)
[15]
  MIC: 0.1 µg/mL (≈ 0.265 µM)
[16]
  MIC: 0.1 µg/mL (≈ 0.265 µM)
[17]
  MIC: 0.78 µg/mL (≈ 2.06 µM)
Proteus vulgaris, 3167 [18]
  MIC: ≤ 0.05 µg/mL
[19]
  MIC: ≤ 0.05 µg/mL
[20]
  MIC: ≤ 0.05 µg/mL
[21]
  MIC: 6.25 µg/mL (≈ 16.5 µM)
[22]
  MIC: 12.5 µg/mL (≈ 33.1 µM)
Escherichia coli NIHJ [23]
  MIC: ≤ 0.05 µg/mL

## CCn1cc(C(=O)O)c(=O)c2cnc(N3CCNCC3)nc21 [PPA, 8-ethyl-5,8-dihydro-5-oxo-2-(1-piperazinyl)-pyrido[2,3-d]pyrimidine-6-carboxylic acid, reference compound]
[1]
  MIC: 12.5 µg/mL (≈ 41.2 µM)
[2]
  MIC: 6.25 µg/mL (≈ 20.6 µM)
Proteus mirabilis, 1287 [3]
  MIC: 6.25 µg/mL (≈ 20.6 µM)
[4]
  MIC: 6.25 µg/mL (≈ 20.6 µM)
[5]
  MIC: 6.25 µg/mL (≈ 20.6 µM)
[24]
  MIC: 100 µg/mL (≈ 330 µM)
[6]
  MIC: 25 µg/mL (≈ 82.4 µM)
Proteus vulgaris, 3167 [7]; Proteus vulgaris, 3167, 18 h
  MIC: 1.56 µg/mL (≈ 5.14 µM)
[8]; Enterobacter cloacae, 12001, 18 h
  MIC: 1.56 µg/mL (≈ 5.14 µM)
[9]
  MIC: 1.56 µg/mL (≈ 5.14 µM)
[10]
  MIC: > 100 µg/mL
Escherichia coli NIHJ [11]; Escherichia coli, 18 h
  MIC: 1.56 µg/mL (≈ 5.14 µM)
[25]
  antibacterial activity (in words): much weaker than the compounds of this invention
mice
  toxicity (in words): low toxicity
